Laboratory results published in PMC7027535 (Journal of Pineal Research, 2020).

Biological target: T1, Notum (Homo sapiens, UniProt Q6P988, C330S)
T1 sequence (Q6P988 81-451 C330S): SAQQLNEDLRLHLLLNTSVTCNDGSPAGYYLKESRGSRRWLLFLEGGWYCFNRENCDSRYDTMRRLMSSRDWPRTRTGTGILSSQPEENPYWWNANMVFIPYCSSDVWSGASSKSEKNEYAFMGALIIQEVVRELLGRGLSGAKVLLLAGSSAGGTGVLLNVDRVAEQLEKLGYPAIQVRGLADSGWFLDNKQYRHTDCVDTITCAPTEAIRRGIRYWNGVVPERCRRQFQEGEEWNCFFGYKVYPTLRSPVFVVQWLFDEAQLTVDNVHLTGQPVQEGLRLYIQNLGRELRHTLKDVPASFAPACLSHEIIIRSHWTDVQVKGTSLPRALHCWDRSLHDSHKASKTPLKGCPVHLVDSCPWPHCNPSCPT
Experiment: X-ray crystal structure ([…] Å); thermal shift (Tm […] to […] °C); OPTS enzyme inhibition IC50
Type: biochemical

CC(=O)NCCc1c[nH]c2ccc(O)cc12 [ASE, N‐acetylserotonin]
IC50: 94 µM
